Assay results from publication PMC12396409, “Screening and hit evaluation of a microbial metabolite library against the pathogenic Plasmodium falciparum and Toxoplasma gondii parasites” (International Journal for Parasitology: Drugs and Drug …, 2025).
Where two headings read alike, the source gives them in different places.

Assays:
[1] = system: P. falciparum 3D7 parasites; assay: P. falciparum growth inhibition assay, 1-cycle (72 h treatment), SYBR DNA staining (library screen at 2 μg/mL and dose-response); format: cell-based, Plasmodium falciparum; settings: 72 h; for activity at 2 µg/mL: Plasmodium falciparum
[2] = system: P. falciparum 3D7 parasites; assay: P. falciparum growth inhibition assay, 2-cycle (120 h treatment), delayed-death screen and dose-response; format: cell-based, Plasmodium falciparum; settings: 120 h; for activity at 2 µg/mL: Plasmodium falciparum
[3] = system: T. gondii RH strain (RH-Tub-eYFP) tachyzoites; assay: microbe, parasite or virus in culture; format: cell-based, Toxoplasma gondii; settings: 72 h, 72 h; for percent parasite growth at 2 µg/mL: Toxoplasma gondii
[4] = T. gondii, parasite screen 2 μg/mL, % growth, replicate 1, read-out: Tg_72h_%Growth_Rep1
[5] = T. gondii, parasite screen 2 μg/mL, % growth, replicate 2, read-out: Tg_72h_%Growth_Rep2
[6] = T. gondii, screen at 2 μg/mL, replicate 1, read-out: Tg_72h_%Growth_Rep1
[7] = T. gondii, screen at 2 μg/mL, replicate 2, read-out: Tg_72h_%Growth_Rep2
[8] = P. falciparum, screen at 2 μg/mL, replicate 1
[9] = P. falciparum, screen at 2 μg/mL, replicate 2
[10] = P. falciparum, parasite screen 2 μg/mL, % growth, replicate 1
[11] = P. falciparum, parasite screen 2 μg/mL, % growth, replicate 2

Compound `CCC(C)(C)C(=O)O[C@H]1C[C@@H](C)C=C2C=C[C@H](C)[C@H](CC[C@@H]3C[C@@H](O)CC(=O)O3)[C@H]21` [Simvastatin] has an activity at 2 µg/mL ([1]; 3D7, 72 h, P. falciparum, parasite screen 2 μg/mL, % growth, replicate 1, read-out: Pf_72h_%Growth_Rep1) of 83.1%, an activity at 2 µg/mL ([1]; 3D7, 72 h, P. falciparum, parasite screen 2 μg/mL, % growth, replicate 2, read-out: Pf_72h_%Growth_Rep2) of 118% and an activity at 2 µg/mL ([2]; 3D7, 120 h, P. falciparum, parasite screen 2 μg/mL, % growth, replicate 1, read-out: Pf_120h_%Growth_Rep1) of 83.8%. For the same compound, the activity at 2 µg/mL ([2]; 3D7, 120 h, P. falciparum, parasite screen 2 μg/mL, % growth, replicate 2, read-out: Pf_120h_%Growth_Rep2) was 70.2%, the percent parasite growth at 2 µg/mL [3, 4] was 93.5% and the percent parasite growth at 2 µg/mL [3, 5] was 71.4%.
`CN(C)c1cc(NC(=O)CNC(C)(C)C)c(O)c2c1C[C@H]1C[C@H]3[C@H](N(C)C)C(O)=C(C(N)=O)C(=O)[C@@]3(O)C(O)=C1C2=O` [Tigecycline] was tested, and the activity at 2 µg/mL ([1]; 3D7, P. falciparum, screen at 2 μg/mL, replicate 1, read-out: Pf_72h_%Growth_Rep1) was 88.2%, the activity at 2 µg/mL ([1]; 3D7, P. falciparum, screen at 2 μg/mL, replicate 2, read-out: Pf_72h_%Growth_Rep2) was 87.6% and the activity at 2 µg/mL ([2]; 3D7, P. falciparum, screen at 2 μg/mL, replicate 1, read-out: Pf_120h_%Growth_Rep1) was 106%. For the same compound, the activity at 2 µg/mL ([2]; 3D7, P. falciparum, screen at 2 μg/mL, replicate 2, read-out: Pf_120h_%Growth_Rep2) was 93.4%, the percent parasite growth at 2 µg/mL [3, 6] was 144% and the percent parasite growth at 2 µg/mL [3, 7] was 97%.
Work on `C/C=C/C[C@@H](C)[C@@H](O)[C@H]1C(=O)N[C@@H]([C@@H](C)O)C(=O)N(C)CC(=O)N(C)[C@@H](CC(C)C)C(=O)N[C@@H](C(C)C)C(=O)N(C)[C@@H](CC(C)C)C(=O)N[C@@H](C)C(=O)N[C@H](C)C(=O)N(C)[C@@H](CC(C)C)C(=O)N(C)[C@@H](CC(C)C)C(=O)N(C)[C@@H](C(C)C)C(=O)N1C` [Cyclosporin C] yielded a Pf_72h_%Growth_Rep1 [1, 8] of 11.25%, a Pf_72h_%Growth_Rep2 [1, 9] of 0.59% and a Pf_120h_%Growth_Rep1 [2, 8] of 31.80%. The Pf_120h_%Growth_Rep2 [2, 9] was 7.29%, the Tg_72h_%Growth_Rep1 ([3]; T. gondii, screen at 2 μg/mL, replicate 1) was 44.04% and the Tg_72h_%Growth_Rep2 ([3]; T. gondii, screen at 2 μg/mL, replicate 2) was 47.65%.
Compound `COc1cc(/C=C/C(=O)O)cc(OC)c1O` [Sinapic acid] has a Mean ([1]; P. falciparum, 2 μg/mL, mean of both replicates, growth (% of control)) of 45.98, a Pf_72h_%Growth_Rep1 [1, 10] of 90.37% and a Pf_72h_%Growth_Rep2 [1, 11] of 1.58%. For the same compound, the Pf_120h_%Growth_Rep1 [2, 10] was 115.97%, the Pf_120h_%Growth_Rep2 [2, 11] was -9.79% and the Tg_72h_%Growth_Rep1 ([3]; T. gondii, parasite screen 2 μg/mL, % growth, replicate 1) was 101.84%. It also gave a Tg_72h_%Growth_Rep2 ([3]; T. gondii, parasite screen 2 μg/mL, % growth, replicate 2) of 75.80%.
`CNc1ccc2oc(C[C@H]3O[C@@]4(CC[C@H]3C)O[C@H]([C@H](C)C(=O)c3ccc[nH]3)[C@H](C)C[C@H]4C)nc2c1C(=O)O` [Calcimycin] showed an activity at 2 µg/mL ([1]; 3D7, 72 h, P. falciparum, screen at 2 μg/mL, replicate 1, read-out: Pf_72h_%Growth_Rep1) of 13.1%, an activity at 2 µg/mL ([1]; 3D7, 72 h, P. falciparum, screen at 2 μg/mL, replicate 2, read-out: Pf_72h_%Growth_Rep2) of 6.23% and an activity at 2 µg/mL ([2]; 3D7, 120 h, P. falciparum, screen at 2 μg/mL, replicate 1, read-out: Pf_120h_%Growth_Rep1) of 11.6%. It also gave an activity at 2 µg/mL ([2]; 3D7, 120 h, P. falciparum, screen at 2 μg/mL, replicate 2, read-out: Pf_120h_%Growth_Rep2) of 3.04%, a percent parasite growth at 2 µg/mL [3, 6] of 1.82% and a percent parasite growth at 2 µg/mL [3, 7] of 1.52%.
`COC1=C2C[C@@H](C)C[C@H](OC)[C@H](O)[C@@H](C)/C=C(\C)[C@H](OC(N)=O)[C@@H](OC)/C=C\C=C(/C)C(=O)NC(=CC1=O)C2=O` [Geldanamycin] gave an activity at 2 µg/mL ([1]; 3D7, library screen at 2 μg/mL, % growth, replicate 1, read-out: Pf_72h_%Growth_Rep1) of 5.26%, an activity at 2 µg/mL ([1]; 3D7, library screen at 2 μg/mL, % growth, replicate 2, read-out: Pf_72h_%Growth_Rep2) of 2.63% and an activity at 2 µg/mL ([2]; 3D7, library screen at 2 μg/mL, % growth, replicate 1, read-out: Pf_120h_%Growth_Rep1) of 25.5%. For the same compound, the activity at 2 µg/mL ([2]; 3D7, library screen at 2 μg/mL, % growth, replicate 2, read-out: Pf_120h_%Growth_Rep2) was 11.8%, the percent parasite growth at 2 µg/mL ([3]; library screen at 2 μg/mL, % growth, replicate 1, read-out: Tg_72h_%Growth_Rep1) was 24.8% and the percent parasite growth at 2 µg/mL ([3]; library screen at 2 μg/mL, % growth, replicate 2, read-out: Tg_72h_%Growth_Rep2) was 24.3%.
With `CC/C=C\[C@H](O)[C@H](O)C1=C(C)C(=O)[C@]2(O1)C(=O)N[C@@](OC)(C(=O)c1ccccc1)[C@@H]2O` [Pseurotin A] the activity at 2 µg/mL ([1]; 3D7, P. falciparum, parasite screen 2 μg/mL, % growth, replicate 1, read-out: Pf_72h_%Growth_Rep1) was 85.8%, the activity at 2 µg/mL ([1]; 3D7, P. falciparum, parasite screen 2 μg/mL, % growth, replicate 2, read-out: Pf_72h_%Growth_Rep2) was 95.5% and the activity at 2 µg/mL ([2]; 3D7, P. falciparum, parasite screen 2 μg/mL, % growth, replicate 1, read-out: Pf_120h_%Growth_Rep1) was 79.7%. It also gave an activity at 2 µg/mL ([2]; 3D7, P. falciparum, parasite screen 2 μg/mL, % growth, replicate 2, read-out: Pf_120h_%Growth_Rep2) of 139%, a percent parasite growth at 2 µg/mL [3, 4] of 122% and a percent parasite growth at 2 µg/mL [3, 5] of 81%.
